Reference: patent US11541028B2, “Peptide pharmaceuticals for treatment of NASH and other disorders” (Mederis Diabetes LLC, priority 2018, dated 2023)
Bridge positions count the residues as written; N and C are the ends. Square brackets hold non-standard residues; d marks the D form. Peptide text beside a SMILES is read from it. * marks the point of attachment. Melibiouronoyl(1β-O-dodecyl) = CCCCCCCCCCCCO[C@@H]1O[C@H](CO[C@H]2O[C@H](C(=O)*)[C@H](O)[C@H](O)[C@H]2O)[C@@H](O)[C@H](O)[C@H]1O; Aib = CC(C)(N)C(=O)O

Experiments:
human GLP-1 receptor = target: T1, human GLP-1 receptor (Homo sapiens, UniProt P43220); assay: DiscoveRx LeadHunter cellular assay, cAMP stimulation, GLP-1 receptor in CHO cells; assay type: cell-based; settings: human GLP-1 receptor in CHO cells (DiscoveRx); read-out: EC50 cAMP GLP-1 R
T1 construct: host or cells: CHO cells
T1 sequence (P43220 24-463): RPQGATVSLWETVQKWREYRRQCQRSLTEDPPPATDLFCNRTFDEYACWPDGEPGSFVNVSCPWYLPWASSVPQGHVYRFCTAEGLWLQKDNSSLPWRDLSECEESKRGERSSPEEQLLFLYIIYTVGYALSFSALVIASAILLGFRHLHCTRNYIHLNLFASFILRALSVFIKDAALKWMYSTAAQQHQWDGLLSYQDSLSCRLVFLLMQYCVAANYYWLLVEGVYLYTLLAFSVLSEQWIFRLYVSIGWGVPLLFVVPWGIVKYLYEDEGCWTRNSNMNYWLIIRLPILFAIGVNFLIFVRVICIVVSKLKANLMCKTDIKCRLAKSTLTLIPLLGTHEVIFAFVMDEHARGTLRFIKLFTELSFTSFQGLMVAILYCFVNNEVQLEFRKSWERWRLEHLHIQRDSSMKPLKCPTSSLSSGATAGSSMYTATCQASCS

human glucagon receptor = target: T2, human glucagon receptor (Homo sapiens, UniProt P47871); assay: DiscoveRx LeadHunter cellular assay, cAMP stimulation, glucagon receptor in CHO cells; assay type: cell-based
T2 construct: host or cells: CHO cells
T2 sequence (P47871 26-477): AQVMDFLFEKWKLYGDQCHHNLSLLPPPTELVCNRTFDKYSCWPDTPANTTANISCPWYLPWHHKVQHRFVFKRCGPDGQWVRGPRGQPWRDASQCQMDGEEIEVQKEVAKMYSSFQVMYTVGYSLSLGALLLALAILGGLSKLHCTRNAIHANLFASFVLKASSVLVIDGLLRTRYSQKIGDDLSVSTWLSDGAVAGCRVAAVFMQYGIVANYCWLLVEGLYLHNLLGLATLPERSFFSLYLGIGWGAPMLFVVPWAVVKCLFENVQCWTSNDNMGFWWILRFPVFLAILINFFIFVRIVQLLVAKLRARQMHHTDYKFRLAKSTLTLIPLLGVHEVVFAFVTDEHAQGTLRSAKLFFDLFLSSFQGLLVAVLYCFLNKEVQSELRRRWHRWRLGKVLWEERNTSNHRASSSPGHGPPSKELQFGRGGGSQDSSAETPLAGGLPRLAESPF

Structure (SMILES) | EC50 (human GLP-1 receptor) [nM] | EC50 (human glucagon receptor) [nM]
CCCCCCCCCCCCO[C@@H]1O[C@H](CO[C@H]2O[C@H](C(=O)NCCCC[C@H](NC(=O)[C@H](CC(=O)O)NC(=O)[C@H](CO)NC(=O)[C@@H](NC(=O)[C@H](Cc3ccccc3)NC(=O)[C@@H](NC(=O)CNC(=O)[C@H](CCC(N)=O)NC(=O)C(C)(C)NC(=O)[C@@H](N)Cc3c[nH]cn3)[C@@H](C)O)[C@@H](C)O)C(=O)N[C@@H](CO)C(=O)N[C@@H](CCCCN)C(=O)N[C@@H](Cc3ccc(O)cc3)C(=O)N[C@@H](CC(C)C)C(=O)N[C@@H](CC(=O)O)C(=O)N[C@H]3CCC(=O)NCCCC[C@@H](C(=O)N[C@@H](CCC(=O)O)C(=O)N[C@@H](Cc4ccccc4)C(=O)N[C@H](C(=O)N[C@@H](CCC(=O)O)C(=O)N[C@@H](Cc4c[nH]c5ccccc45)C(=O)N[C@@H](CC(C)C)C(=O)N[C@@H](CC(C)C)C(=O)N[C@@H](CCC(N)=O)C(=O)N[C@H](C(=O)O)[C@@H](C)O)[C@@H](C)CC)NC(=O)[C@H](C)NC(=O)[C@H](C)NC(=O)[C@H](CCC(N)=O)NC3=O)[C@H](O)[C@H](O)[C@H]2O)[C@@H](O)[C@H](O)[C@H]1O [EU-A1599] (H-H[Aib]QGTFTSDK(Melibiouronoyl(1β-O-dodecyl))SKYLDEQAAKEFIEWLLQT-OH; lactam 16-20; N-terminus assumed) | 0.061 | 0.317
CCCCCCCCCCCCCCO[C@@H]1O[C@H](CO[C@H]2O[C@H](C(=O)NCCCC[C@H](N)C(=O)NCCCC[C@H](NC(=O)[C@@H](NC(=O)[C@H](Cc3ccccc3)NC(=O)[C@H](CCC(=O)O)NC(=O)[C@@H]3CCCCNC(=O)CC[C@H](NC(=O)[C@H](CC(=O)O)NC(=O)[C@H](CC(C)C)NC(=O)[C@H](Cc4ccc(O)cc4)NC(=O)[C@H](CCCCN)NC(=O)[C@H](CO)NC(=O)[C@H](Cc4ccc(O)cc4)NC(=O)[C@H](CC(=O)O)NC(=O)[C@H](CO)NC(=O)[C@@H](NC(=O)[C@H](Cc4ccccc4)NC(=O)[C@@H](NC(=O)CNC(=O)[C@H](CCC(N)=O)NC(=O)C(C)(C)NC(=O)[C@@H](N)Cc4c[nH]cn4)[C@@H](C)O)[C@@H](C)O)C(=O)N[C@@H](CCC(N)=O)C(=O)N[C@@H](C)C(=O)N[C@@H](C)C(=O)N3)[C@@H](C)CC)C(=O)N[C@@H](Cc3c[nH]c4ccccc34)C(=O)N[C@@H](CC(C)C)C(=O)N[C@@H](CC(C)C)C(=O)N[C@@H](CCC(N)=O)C(=O)N[C@H](C(N)=O)[C@@H](C)O)[C@H](O)[C@H](O)[C@H]2O)[C@@H](O)[C@H](O)[C@H]1O [EU-A1602] | 0.035 | 0.162
CCCCCCCCCCCCO[C@@H]1O[C@H](CO[C@H]2O[C@H](C(=O)N[C@@H](CCC(=O)NCCCC[C@H](NC(=O)[C@@H](NC(=O)[C@H](Cc3ccccc3)NC(=O)[C@H](CCC(=O)O)NC(=O)[C@@H]3CCCCNC(=O)CC[C@H](NC(=O)[C@H](CC(=O)O)NC(=O)[C@H](CC(C)C)NC(=O)[C@H](Cc4ccc(O)cc4)NC(=O)[C@H](CCCCN)NC(=O)[C@H](CO)NC(=O)[C@H](Cc4ccc(O)cc4)NC(=O)[C@H](CC(=O)O)NC(=O)[C@H](CO)NC(=O)[C@@H](NC(=O)[C@H](Cc4ccccc4)NC(=O)[C@@H](NC(=O)CNC(=O)[C@H](CCC(N)=O)NC(=O)C(C)(C)NC(=O)[C@@H](N)Cc4c[nH]cn4)[C@@H](C)O)[C@@H](C)O)C(=O)N[C@@H](CCC(N)=O)C(=O)N[C@@H](C)C(=O)N[C@@H](C)C(=O)N3)[C@@H](C)CC)C(=O)N[C@@H](Cc3c[nH]c4ccccc34)C(=O)N[C@@H](CC(C)C)C(=O)N[C@@H](CC(C)C)C(=O)N[C@@H](CCC(N)=O)C(=O)N[C@H](C(N)=O)[C@@H](C)O)C(=O)O)[C@H](O)[C@H](O)[C@H]2O)[C@@H](O)[C@H](O)[C@H]1O [EU-A1606] | 0.017 | 0.058
CCCCCCCCCCCCCCO[C@@H]1O[C@H](CO[C@H]2O[C@H](C(=O)N[C@@H](CCC(=O)NCCCC[C@H](NC(=O)[C@@H](NC(=O)[C@H](Cc3ccccc3)NC(=O)[C@H](CCC(=O)O)NC(=O)[C@@H]3CCCCNC(=O)CC[C@H](NC(=O)[C@H](CC(=O)O)NC(=O)[C@H](CC(C)C)NC(=O)[C@H](Cc4ccc(O)cc4)NC(=O)[C@H](CCCCN)NC(=O)[C@H](CO)NC(=O)[C@H](Cc4ccc(O)cc4)NC(=O)[C@H](CC(=O)O)NC(=O)[C@H](CO)NC(=O)[C@@H](NC(=O)[C@H](Cc4ccccc4)NC(=O)[C@@H](NC(=O)CNC(=O)[C@H](CCC(N)=O)NC(=O)C(C)(C)NC(=O)[C@@H](N)Cc4c[nH]cn4)[C@@H](C)O)[C@@H](C)O)C(=O)N[C@@H](CCC(N)=O)C(=O)N[C@@H](C)C(=O)N[C@@H](C)C(=O)N3)[C@@H](C)CC)C(=O)N[C@@H](Cc3c[nH]c4ccccc34)C(=O)N[C@@H](CC(C)C)C(=O)N[C@@H](CC(C)C)C(=O)N[C@@H](CCC(N)=O)C(=O)N[C@H](C(N)=O)[C@@H](C)O)C(=O)O)[C@H](O)[C@H](O)[C@H]2O)[C@@H](O)[C@H](O)[C@H]1O [EU-A1607] | 0.022 | 0.126
CCCCCCCCCCCCO[C@@H]1O[C@H](CO[C@H]2O[C@H](C(=O)N[C@@H](CCC(=O)NCCCC[C@H](NC(=O)[C@@H](NC(=O)[C@H](Cc3ccccc3)NC(=O)[C@H](CCC(=O)O)NC(=O)[C@@H]3CCCCNC(=O)CC[C@H](NC(=O)[C@H](CC(=O)O)NC(=O)[C@H](CC(C)C)NC(=O)[C@H](Cc4ccc(O)cc4)NC(=O)[C@H](CCCCN)NC(=O)[C@H](CO)NC(=O)[C@H](Cc4ccc(O)cc4)NC(=O)[C@H](CC(=O)O)NC(=O)[C@H](CO)NC(=O)[C@@H](NC(=O)[C@H](Cc4ccccc4)NC(=O)[C@@H](NC(=O)CNC(=O)[C@H](CCC(N)=O)NC(=O)C(C)(C)NC(=O)[C@@H](N)Cc4c[nH]cn4)[C@@H](C)O)[C@@H](C)O)C(=O)N[C@@H](CCC(N)=O)C(=O)N[C@@H](C)C(=O)N[C@@H](C)C(=O)N3)[C@@H](C)CC)C(=O)N[C@@H](Cc3c[nH]c4ccccc34)C(=O)N[C@@H](CC(C)C)C(=O)N[C@@H](CC(C)C)C(=O)N[C@@H](CCC(N)=O)C(=O)N[C@H](C(=O)O)[C@@H](C)O)C(=O)O)[C@H](O)[C@H](O)[C@H]2O)[C@@H](O)[C@H](O)[C@H]1O [EU-A1616] | 0.079 | 0.204

Molecules with a lower EC50 (human GLP-1 receptor), results first:

EC50 (human GLP-1 receptor) [nM] | EC50 (human glucagon receptor) [nM] | Structure (SMILES)
0.007 | 0.048 | CCCCCCCCCCCCO[C@@H]1O[C@H](CO[C@H]2O[C@H](C(=O)NCCCC[C@H](N)C(=O)NCCCC[C@H](NC(=O)[C@@H](NC(=O)[C@H](Cc3ccccc3)NC(=O)[C@H](CCC(=O)O)NC(=O)[C@@H]3CCCCNC(=O)CC[C@H](NC(=O)[C@H](CC(=O)O)NC(=O)[C@H](CC(C)C)NC(=O)[C@H](Cc4ccc(O)cc4)NC(=O)[C@H](CCCCN)NC(=O)[C@H](CO)NC(=O)[C@H](Cc4ccc(O)cc4)NC(=O)[C@H](CC(=O)O)NC(=O)[C@H](CO)NC(=O)[C@@H](NC(=O)[C@H](Cc4ccccc4)NC(=O)[C@@H](NC(=O)CNC(=O)[C@H](CCC(N)=O)NC(=O)C(C)(C)NC(=O)[C@@H](N)Cc4c[nH]cn4)[C@@H](C)O)[C@@H](C)O)C(=O)N[C@@H](CCC(N)=O)C(=O)N[C@@H](C)C(=O)N[C@@H](C)C(=O)N3)[C@@H](C)CC)C(=O)N[C@@H](Cc3c[nH]c4ccccc34)C(=O)N[C@@H](CC(C)C)C(=O)N[C@@H](CC(C)C)C(=O)N[C@@H](CCC(N)=O)C(=O)N[C@H](C(N)=O)[C@@H](C)O)[C@H](O)[C@H](O)[C@H]2O)[C@@H](O)[C@H](O)[C@H]1O [EU-A1601]
0.015 | 0.16 | CCCCCCCCCCCCO[C@@H]1O[C@H](CO[C@H]2O[C@H](C(=O)NCCCC[C@H](N)C(=O)NCCCC[C@H](NC(=O)[C@@H](NC(=O)[C@H](Cc3ccccc3)NC(=O)[C@H](CCC(=O)O)NC(=O)[C@@H]3CCCCNC(=O)CC[C@H](NC(=O)[C@H](CC(=O)O)NC(=O)[C@H](CC(C)C)NC(=O)[C@H](Cc4ccc(O)cc4)NC(=O)[C@H](CCCCN)NC(=O)[C@H](CO)NC(=O)[C@H](Cc4ccc(O)cc4)NC(=O)[C@H](CC(=O)O)NC(=O)[C@H](CO)NC(=O)[C@@H](NC(=O)[C@H](Cc4ccccc4)NC(=O)[C@@H](NC(=O)CNC(=O)[C@H](CCC(N)=O)NC(=O)C(C)(C)NC(=O)[C@@H](N)Cc4c[nH]cn4)[C@@H](C)O)[C@@H](C)O)C(=O)N[C@@H](CCC(N)=O)C(=O)N[C@@H](C)C(=O)N[C@@H](C)C(=O)N3)[C@@H](C)CC)C(=O)N[C@@H](Cc3c[nH]c4ccccc34)C(=O)N[C@@H](CC(C)C)C(=O)N[C@@H](CC(C)C)C(=O)N[C@@H](CCC(N)=O)C(=O)N[C@H](C(=O)O)[C@@H](C)O)[C@H](O)[C@H](O)[C@H]2O)[C@@H](O)[C@H](O)[C@H]1O [EU-A1611]
0.011 | 0.059 | CCCCCCCCCCCCCCO[C@@H]1O[C@H](CO[C@H]2O[C@H](C(=O)NCCCC[C@H](N)C(=O)NCCCC[C@H](NC(=O)[C@@H](NC(=O)[C@H](Cc3ccccc3)NC(=O)[C@H](CCC(=O)O)NC(=O)[C@@H]3CCCCNC(=O)CC[C@H](NC(=O)[C@H](CC(=O)O)NC(=O)[C@H](CC(C)C)NC(=O)[C@H](Cc4ccc(O)cc4)NC(=O)[C@H](CCCCN)NC(=O)[C@H](CO)NC(=O)[C@H](Cc4ccc(O)cc4)NC(=O)[C@H](CC(=O)O)NC(=O)[C@H](CO)NC(=O)[C@@H](NC(=O)[C@H](Cc4ccccc4)NC(=O)[C@@H](NC(=O)CNC(=O)[C@H](CCC(N)=O)NC(=O)C(C)(C)NC(=O)[C@@H](N)Cc4c[nH]cn4)[C@@H](C)O)[C@@H](C)O)C(=O)N[C@@H](CCC(N)=O)C(=O)N[C@@H](C)C(=O)N[C@@H](C)C(=O)N3)[C@@H](C)CC)C(=O)N[C@@H](Cc3c[nH]c4ccccc34)C(=O)N[C@@H](CC(C)C)C(=O)N[C@@H](CC(C)C)C(=O)N[C@@H](CCC(N)=O)C(=O)N[C@H](C(=O)O)[C@@H](C)O)[C@H](O)[C@H](O)[C@H]2O)[C@@H](O)[C@H](O)[C@H]1O [EU-A1612]
